Experimental data reported in patent publication US7417060B2, “Aminoalcohol derivatives” (Astellas Pharma Inc., priority 2003, dated 2008).

Each compound was assayed on intravesical pressure (IVP) increase induced by carbachol (assay: Effect on the increase in intravesical pressure induced by carbachol in anesthetized dog). Details: anesthetized female Beagle dogs; test compound 0.010 mg/kg intravenously 30 minutes before carbachol (1.8 μg/kg).
Assay type: in vivo
Description: Effect on the Increase in Intravesical Pressure Induced by Carbachol in Anesthetized Dog
Female Beagle dogs weighing 8.0-15.0 kg were fasted for 24 hours and maintained under halothane anesthesia. A 12F Foley catheter was lubricated with water soluble jelly, inserted into the urethral orifice and advanced approximately 10 cm until the balloon tip was placed well inside the bladder. The balloon was then inflated with 5 ml of room air and catheter slowly withdrawn just part the first resistance that was felt at the bladder neck. Urine was completely drained out through the catheter, and 30 ml of biological saline was infused. The catheter was connected to pressure transducer, and intravesical pressure (IVP) was continuously recorded. The test compound was administered intravenously at 30 minutes before the administration of carbachol (1.8 μg/kg). Percent inhibition of IVP increase by test compound was calculated by dividing IVPa (IVP increase induced by carbachol after test compound administration) by IVPb (IVP increase induced by carbachol just before test compound administration).
CS(=O)(=O)NC(=O)c1ccc(-c2ccc(CCNC[C@H](O)c3cccnc3)cc2)cc1OC1CCCCC1.Cl.Cl [Test Compound (3), 3-(Cyclohexyloxy)-4′-[2-[[(2R)-2-hydroxy-2-(3-pyridyl)ethyl]amino]ethyl]-N-(methylsulfonyl)-4-biphenylcarboxamide dihydrochloride] was tested, and the “Percent inhibition of IVP increase” value was 89%.
CC(C)Cc1cc(-c2ccc(CCN[C@@H](C)[C@H](O)c3ccccc3)cc2)ccc1C(=O)NS(C)(=O)=O.Cl [Test Compound (2), 4′-[2-[[(1S,2R)-2-Hydroxy-1-methyl-2-phenylethyl]-amino]ethyl]-3-isobutyl-N-(methylsulfonyl)-4-biphenylcarboxamide hydrochloride] was tested, and the “Percent inhibition of IVP increase” value was 76%.
In the case of CC(C)Sc1cc(-c2ccc(CCN[C@@H](C)[C@H](O)c3ccccc3)cc2)ccc1C(=O)O.Cl [Test Compound (1), 4′-[2-[[(1S,2R)-2-Hydroxy-1-methyl-2-phenylethyl]-amino]ethyl]-3-(isopropylthio)-4-biphenylcarboxylic acid hydrochloride], the “Percent inhibition of IVP increase” value was 77%.
